Like-named read-outs stand apart in the source and are kept apart here.
Assays:
[1] = tested on: TLR2 induced IL-6 in peripheral blood mononuclear cells (PBMCs); experiment: PBMC TLR2 Induced IL-6 Assay; assay type: cell-based, human; conditions: human PBMCs, 10 μg/ml lipoteichoic acid for 5 hours, IL-6 by ELISA; for IC50: value without asterisk, read-out: Cell IC50; for EC50: EC50 determinations are indicated with an asterisk, read-out: Cell EC50 (asterisk)
Method in brief: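 IL-6 ELISA of supernatants after a 5 h challenge with the TLR2 agonist lipoteichoic acid (10 μg/ml). Before stimulation, human PBMCs (250000 cells/well; RPMI, 10% heat-inactivated FCS) received compound for 30 min at 37° C. Values given as IC50 or EC50.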

IRAK4 = IRAK4 (Homo sapiens (Human), UniProt Q9NWZ3); experiment: IRAK4 Inhibition Assay; assay type: biochemical; conditions: ATP 500 μM; IRAK4 0.6 nM; 60 min at room temperature
Sequence of IRAK4 (Q9NWZ3 whole entry, species assumed): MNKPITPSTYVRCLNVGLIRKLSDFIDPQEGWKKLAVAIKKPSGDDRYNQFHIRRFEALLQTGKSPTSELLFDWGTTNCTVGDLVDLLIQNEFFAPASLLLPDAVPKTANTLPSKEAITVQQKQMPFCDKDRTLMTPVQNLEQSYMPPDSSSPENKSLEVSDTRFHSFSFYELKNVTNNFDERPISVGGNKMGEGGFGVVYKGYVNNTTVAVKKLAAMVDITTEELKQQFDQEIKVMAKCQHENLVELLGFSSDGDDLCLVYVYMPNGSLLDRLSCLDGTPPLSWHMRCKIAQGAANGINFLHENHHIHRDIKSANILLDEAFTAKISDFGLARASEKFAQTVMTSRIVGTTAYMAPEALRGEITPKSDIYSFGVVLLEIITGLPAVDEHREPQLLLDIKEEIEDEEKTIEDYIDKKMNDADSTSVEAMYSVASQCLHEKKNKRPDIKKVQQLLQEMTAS
Procedure: The assays were performed in U-bottom 384-well plates. […] The reaction was initiated by the combination of IRAK4 with substrates and test compounds. The reaction was incubated at room temperature for 60 min. and terminated by adding 45 μL of 35 mM EDTA to each sample. The reaction mixture was analyzed on the Caliper LABCHIP® 3000 (Caliper, Hopkinton, Mass.) by electrophoretic separation of the fluorescent substrate and phosphorylated product.

IC50 (IRAK4) [µM]	SMILES	IC50 ([1]; Homo sapiens, PBMC, 5 h) [µM]	IC50 [1] [µM]	EC50 ([1]; Homo sapiens, PBMC, 5 h) [µM]	EC50 [1] [µM]
0.0008	CC(C)Nc1cc(Nc2nc3scnc3cc2F)ncc1C(=O)NC[C@@H](F)C(C)(C)O [Example 455]	0.573			
0.0016	CC(C)Nc1cc(Nc2ccc3ncsc3c2)ncc1C(=O)NC1CCC(C(C)(C)O)CC1 (centres unmarked) [Example 456]	0.336			
0.0034	CC(C)Nc1cc(Nc2nc3ccnn3cc2F)ncc1C(=O)NC1CCC(C(C)(C)O)CC1 (centres unmarked) [Example 457]	1.55			
0.0034	CC(CO)Nc1cc(Nc2nc3scnc3cc2F)ncc1C(=O)NC[C@@H](F)C(C)(C)O (some centres unmarked) [Example 459]		0.141		
0.0033	CC(CO)Nc1cc(Nc2nc3scnc3cc2F)ncc1C(=O)NC[C@@H](F)C(C)(C)O (some centres unmarked) [Example 460]		0.553		
0.002	CC(C)(O)[C@H](F)CNC(=O)c1cnc(Nc2nc3scnc3cc2F)cc1NC1CCCC1F (some centres unmarked) [Example 461]	0.147			
0.0017	CC(C)(O)[C@H](F)CNC(=O)c1cnc(Nc2nc3scnc3cc2F)cc1NC1CCCC1F (some centres unmarked) [Example 462]		0.115		
0.002	CC(C)(O)[C@H](F)CNC(=O)c1cnc(Nc2nc3scnc3cc2F)cc1NC1CC1 [Example 467]	0.428			
0.0041	CCNc1cc(Nc2nc3scnc3cc2F)ncc1C(=O)NC[C@@H](F)C(C)(C)O [Example 468]	0.246			
0.0031	CC(C)(O)[C@H](F)CNC(=O)c1cnc(Nc2nc3scnc3cc2F)cc1NC1CCOCC1F (some centres unmarked) [Example 469]	0.476			
0.0036	CC(C)(O)[C@H](F)CNC(=O)c1cnc(Nc2nc3scnc3cc2F)cc1NC1CCOCC1F (some centres unmarked) [Example 470]		0.635		
0.0015	CC(C)(O)[C@H](F)CNC(=O)c1cnc(Nc2nc3scnc3cc2F)cc1NC1CCCOC1 (some centres unmarked) [Example 473]	0.401			
0.0028	CC(C)(O)[C@H](F)CNC(=O)c1cnc(Nc2nc3scnc3cc2F)cc1NC1CCCOC1 (some centres unmarked) [Example 474]		0.204		
0.01	CC(C)Nc1cc(Nc2cc3ccnn3cc2F)ncc1C(=O)NC[C@@H](F)C(C)(C)O [Example 477]	0.717			
0.0022	CC(C)(O)[C@H](F)CNC(=O)c1cnc(Nc2nc3ccnn3cc2F)cc1NC1CCC(F)C1 (some centres unmarked) [Example 478]		0.05		
0.0043	CC(C)(O)[C@H](F)CNC(=O)c1cnc(Nc2nc3ccnn3cc2F)cc1NC1CCCCC1F (some centres unmarked) [Example 479]	0.473			
0.0084	CC(C)Nc1cc(Nc2ccc3cc(C#N)ccc3n2)ncc1C(=O)NC[C@@H](F)C(C)(C)O [Example 480]			0.877	
0.0036	CC(C)(O)[C@H](F)CNC(=O)c1cnc(Nc2nc3ccnn3cc2F)cc1NC1CC2CC2C1(F)F (some centres unmarked) [Example 481]	0.223			
0.0103	Cc1cn2nccc2nc1Nc1cc(NC2CCOCC2)c(C(=O)NC[C@@H](F)C(C)(C)O)cn1 [Example 482]			0.251	
0.0034	CC(C)Nc1cc(Nc2nc3scnc3cc2F)ncc1C(=O)NCC(F)(F)C(C)(C)O [Example 483]	0.463			
0.0087	C[C@@H](CO)Nc1cc(Nc2nc3scnc3cc2F)ncc1C(=O)N[C@H]1CC[C@H](O)CC1 [Example 484]	1.35			
0.0081	Cc1cn2nccc2cc1Nc1cc(NC(C)C)c(C(=O)NC[C@@H](F)C(C)(C)O)cn1 [Example 487]			0.632	
0.0082	CC(C)(F)CNc1cc(Nc2ncc3ncsc3c2F)ncc1C(=O)NC1CCC(C(C)(C)O)CC1 (centres unmarked) [Example 489]			0.374	

IC50 (IRAK4) [µM]	SMILES	IC50 ([1]; Homo sapiens, PBMC, 5 h) [µM]	IC50 [1] [µM]	EC50 ([1]; Homo sapiens, PBMC, 5 h) [µM]	EC50 [1] [µM]
0.0042	CC(C)(O)C1CCC(NC(=O)c2cnc(Nc3ccc4ncsc4c3)cc2NC2CCCOC2)CC1 (centres unmarked) [Example 490]			0.277	
0.005	CC(C)(O)C1CCC(NC(=O)c2cnc(Nc3ccc4ncsc4c3)cc2NC2CCCOC2)CC1 (centres unmarked) [Example 491]				0.281
0.0121	CCNc1cc(Nc2nc3ccnn3cc2F)ncc1C(=O)NC1CCC(C(C)(C)O)CC1 (centres unmarked) [Example 492]			0.454	
0.0043	CC(C)(O)C(F)(F)CNC(=O)c1cnc(Nc2nc3scnc3cc2F)cc1NC1CC1 [Example 493]			0.365	
0.0085	CC(C)Nc1cc(Nc2ccc3ncsc3c2)ncc1C(=O)NC1CCc2[nH]ncc2C1 (centres unmarked) [Example 494]			0.209	
0.0119	CC(C)(O)[C@H](F)CNC(=O)c1cnc(Nc2ncc3ccc(F)cc3n2)cc1NC1CCOCC1 [Example 495]			0.447	
0.0064	CC(C)(O)[C@H](F)CNC(=O)c1cnc(Nc2nc3ccnn3cc2F)cc1NC1CCCCC1(F)F (some centres unmarked) [Example 496]				0.091
0.0152	CC(C)(O)[C@H](F)CNC(=O)c1cnc(Nc2nc3ccnn3cc2F)cc1NC1CCCCC1(F)F (some centres unmarked) [Example 497]				0.299
0.0054	CC(C)(O)[C@H](F)CNC(=O)c1cnc(Nc2cc3nccnc3cc2F)cc1NC1CCC1 [Example 500]			0.228	
0.0045	CC(C)Nc1cc(Nc2cc3nccnc3cc2F)ncc1C(=O)NC[C@@H](F)C(C)(C)O [Example 501]			0.209	
0.0048	CC(CCF)Nc1cc(Nc2nc3ccnn3cc2F)ncc1C(=O)NC[C@@H](F)C(C)(C)O (some centres unmarked) [Example 502]			0.144	
0.0047	CNC(=O)[C@H]1CC[C@H](NC(=O)c2cnc(Nc3ccc4ncsc4c3)cc2NC2CCC2)CC1 [Example 504]	0.496			
0.0065	CNC(=O)[C@H]1CC[C@H](NC(=O)c2cnc(Nc3ccc4ncsc4c3)cc2NCC(F)(F)F)CC1 [Example 506]	0.32			
0.012	CNC(=O)[C@H]1CC[C@H](NC(=O)c2cnc(Nc3cnc4[nH]ccc4c3)cc2NC(C)C)CC1 [Example 507]	0.523			
0.0102	CNC(=O)[C@H]1CC[C@H](NC(=O)c2cnc(Nc3nc4ccnn4cc3F)cc2NC2CC2)CC1 [Example 508]	10			
0.0095	CNC(=O)[C@H]1CC[C@H](NC(=O)c2cnc(Nc3nc4ccnn4cc3F)cc2NC2CCOCC2)CC1 [Example 509]	1.2			
0.0015	CNC(=O)[C@H]1CC[C@H](NC(=O)c2cnc(Nc3ccc4ncsc4n3)cc2NC2CCOCC2)CC1 [Example 510]			0.028	
0.0042	CC(=O)N[C@H]1CC[C@H](NC(=O)c2cnc(Nc3ccc4ncsc4c3)cc2N[C@H]2CCOC[C@@H]2F)CC1 [Example 511]	0.611			
0.0174	CC(=O)N[C@H]1CC[C@H](NC(=O)c2cnc(Nc3nc4ccnn4cc3F)cc2NC(C)C)CC1 [Example 512]	0.602			
0.0094	CC(=O)N[C@H]1CC[C@H](NC(=O)c2cnc(Nc3nc4ccnn4cc3F)cc2NC2CCOCC2)CC1 [Example 513]	1.57			
0.0018	CC(=O)N[C@H]1CC[C@H](NC(=O)c2cnc(Nc3ccc4ncsc4n3)cc2NC2CCOCC2)CC1 [Example 514]			0.026	
0.0034	CC(C)(O)[C@H](F)CNC(=O)c1cnc(Nc2cc3scnc3cc2F)cc1NCC(F)(F)F [Example 515]	0.45			
0.0031	CCNc1cc(Nc2cc3scnc3cc2F)ncc1C(=O)NC[C@@H](F)C(C)(C)O [Example 516]	1.2			
